From BindingDB's records for doi:10.1021/jf050110v (China Pharmaceutical University, 2020)

These compounds were tested against High affinity nerve growth factor receptor (Homo sapiens, UniProt P04629) (assay: Inhibition of wild type […] (unknown origin) incubated for 30 mins by caliper mobility shift assay).
Sequence of High affinity nerve growth factor receptor (P04629 whole entry): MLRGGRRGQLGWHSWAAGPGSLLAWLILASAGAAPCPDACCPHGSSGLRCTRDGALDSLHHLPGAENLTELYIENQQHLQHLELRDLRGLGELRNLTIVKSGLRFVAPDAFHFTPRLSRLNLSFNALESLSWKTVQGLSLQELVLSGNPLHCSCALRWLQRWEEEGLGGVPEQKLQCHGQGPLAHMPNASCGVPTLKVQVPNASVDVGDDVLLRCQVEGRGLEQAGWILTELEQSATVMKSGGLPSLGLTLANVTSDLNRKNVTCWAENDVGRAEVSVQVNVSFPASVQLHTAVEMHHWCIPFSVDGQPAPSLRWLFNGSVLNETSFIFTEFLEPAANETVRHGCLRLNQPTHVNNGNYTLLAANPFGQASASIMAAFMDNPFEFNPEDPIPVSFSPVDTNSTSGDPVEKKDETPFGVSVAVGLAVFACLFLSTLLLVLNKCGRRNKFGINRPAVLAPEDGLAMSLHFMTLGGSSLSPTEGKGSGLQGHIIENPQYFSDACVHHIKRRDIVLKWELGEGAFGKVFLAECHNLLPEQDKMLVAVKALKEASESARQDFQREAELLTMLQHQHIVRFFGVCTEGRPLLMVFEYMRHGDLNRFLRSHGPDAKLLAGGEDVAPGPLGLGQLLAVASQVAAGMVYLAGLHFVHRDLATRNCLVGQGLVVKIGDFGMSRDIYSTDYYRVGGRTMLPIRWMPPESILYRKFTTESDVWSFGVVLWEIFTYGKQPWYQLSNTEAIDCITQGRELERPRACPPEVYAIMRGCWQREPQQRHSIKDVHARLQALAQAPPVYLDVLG

Structure (SMILES) | IC50 [nM]
O=C(NC1CCOCC1)c1cnn2ccc(NCc3cccc(F)c3)nc12 | 3.6
CO[C@H]1CC[C@H](NC(=O)c2cnn3ccc(NCc4cccc(F)c4)nc23)CC1 | 1.5
CN(Cc1cccc(F)c1)c1ccn2ncc(C(=O)NC3CCOCC3)c2n1 | 3.2
CO[C@H]1CC[C@H](NC(=O)c2cnn3ccc(N(C)Cc4cccc(F)c4)nc23)CC1 | 1.1
O=C(NC1CCOCC1)c1cnc2ccc(NCc3cccc(F)c3)nn12 | 8.4
O=C(N[C@H]1CC[C@H](O)CC1)c1cnc2ccc(NCc3cccc(F)c3)nn12 | 2.8
CO[C@H]1CC[C@H](NC(=O)c2cnc3ccc(NCc4cccc(F)c4)nn23)CC1 | 3

The remaining lines, values ahead:

IC50 [nM] | Structure (SMILES)
1.6 | O=C(N[C@H]1CC[C@H](O)CC1)c1cnn2ccc(NCc3cccc(F)c3)nc12
2.1 | CC(Nc1ccn2ncc(C(=O)NC3CCOCC3)c2n1)c1cccc(F)c1 (stereo unspecified)
3 | CC(Nc1ccn2ncc(C(=O)N[C@H]3CC[C@H](O)CC3)c2n1)c1cccc(F)c1 (stereo partly specified)
1.3 | CN(Cc1cccc(F)c1)c1ccn2ncc(C(=O)N[C@H]3CC[C@H](O)CC3)c2n1
